Data as given in PubChem BioAssay AID1963433 (Molecular Pharmacology Branch, DTP, NCI, 2024).

Tested on: 772245-204-R-J1-PDC complex spheroid growth
Assay: Anticancer human tumor 772245-204-R-J1-PDC patient-derived rhabdomyosarcoma cell line growth inhibition [Asc]
Conditions: for IC50: curve of first compound; for viability, T/C: stronger effect = lower value
In short: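 Tumor cells were grown as multicellular spheroids with stromal HUVEC and mesenchymal stem cells and treated singly or in combination. Concentrations fell in half-log steps from the clinical Cmax, or from 10 microM where none was known.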
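Further: compound exposure lasted seven days.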
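Wherever viability, T/C is given: 100% = DMSO vehicle control viability.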

Question: Which results are given for `NC1CCC(NC2CC2c2ccccc2)CC1` (stereo not given) + CNC(C)C(=O)NC1CN(S(=O)(=O)c2cccc(S(=O)(=O)N3CCC4CCC(C(=O)NC(c5ccccc5)c5ccccc5)N4C(=O)C(NC(=O)C(C)NC)C3)c2)CCC2CCC(C(=O)NC(c3ccccc3)c3ccccc3)N2C1=O?
Answer: IC50 (second compound 0.01 µM): > 100 nM; IC50 (second compound 0.0316 µM): > 100 nM; IC50 (second compound 0.1 µM): > 100 nM; IC50 (second compound 0.316 µM): > 100 nM; IC50 (second compound 1 µM): > 100 nM; viability, T/C (second compound 0.01 µM, first compound 0.000316 µM): 111%; viability, T/C (second compound 0.01 µM, first compound 0.001 µM): 104%; viability, T/C (second compound 0.01 µM, first compound 0.00316 µM): 91.6%; viability, T/C (second compound 0.01 µM, first compound 0.01 µM): 105%; viability, T/C (second compound 0.01 µM, first compound 0.0316 µM): 98.5%; viability, T/C (second compound 0.01 µM, first compound 0.1 µM): 89.5%; viability, T/C (second compound 0.0316 µM, first compound 0.000316 µM): 85.7%; viability, T/C (second compound 0.0316 µM, first compound 0.001 µM): 91.9%; viability, T/C (second compound 0.0316 µM, first compound 0.00316 µM): 88.5%; viability, T/C (second compound 0.0316 µM, first compound 0.01 µM): 94.8%; viability, T/C (second compound 0.0316 µM, first compound 0.0316 µM): 90.7%; viability, T/C (second compound 0.0316 µM, first compound 0.1 µM): 88%; viability, T/C (second compound 0.1 µM, first compound 0.000316 µM): 92%; viability, T/C (second compound 0.1 µM, first compound 0.001 µM): 103%; viability, T/C (second compound 0.1 µM, first compound 0.00316 µM): 87.5%; viability, T/C (second compound 0.1 µM, first compound 0.01 µM): 88.4%; viability, T/C (second compound 0.1 µM, first compound 0.0316 µM): 90.9%; viability, T/C (second compound 0.1 µM, first compound 0.1 µM): 82.2%; viability, T/C (second compound 0.316 µM, first compound 0.000316 µM): 97.1%; viability, T/C (second compound 0.316 µM, first compound 0.001 µM): 90.1%; viability, T/C (second compound 0.316 µM, first compound 0.00316 µM): 102%; viability, T/C (second compound 0.316 µM, first compound 0.01 µM): 86.9%; viability, T/C (second compound 0.316 µM, first compound 0.0316 µM): 88.3%; viability, T/C (second compound 0.316 µM, first compound 0.1 µM): 98.7%; viability, T/C (second compound 1 µM, first compound 0.000316 µM): 100%; viability, T/C (second compound 1 µM, first compound 0.001 µM): 88.1%; viability, T/C (second compound 1 µM, first compound 0.00316 µM): 92.9%; viability, T/C (second compound 1 µM, first compound 0.01 µM): 86.6%; viability, T/C (second compound 1 µM, first compound 0.0316 µM): 78.9%; viability, T/C (second compound 1 µM, first compound 0.1 µM): 91.2%

Question: Which IC50 (second compound 0.03 µM) does the source give for `Cc1nc(N2CCC3(CC2)COC(C)C3N)c(CO)nc1Sc1ccnc(N)c1Cl` (stereo not given) + CCN1C(C(=O)NC23CCC(C(=O)O)(CC2)CC3)C(c2cccc(Cl)c2F)C2(C(=O)Nc3cc(Cl)ccc32)C12CCCCC2 here?
Answer: The IC50 was > 3000 nM.

Question: What about the IC50 (second compound 0.0949 µM) of the same compound?
Answer: The IC50 was > 3000 nM.

Question: What about the IC50 (second compound 0.3 µM) of the same compound?
Answer: The IC50 was > 3000 nM.

Question: What about the IC50 (second compound 0.949 µM) of the same compound?
Answer: Its IC50 is > 3000 nM.

Question: What about the IC50 (second compound 3 µM) of the same compound?
Answer: Its IC50 is 2740 nM.

Question: And the viability, T/C (second compound 0.03 µM, first compound 0.00949 µM)?
Answer: The viability, T/C was 94.9%.

Question: And the viability, T/C (second compound 0.03 µM, first compound 0.03 µM)?
Answer: Its viability, T/C is 120%.

Question: What about the viability, T/C (second compound 0.03 µM, first compound 0.0949 µM) of the same compound?
Answer: Its viability, T/C is 108%.

Question: What about the viability, T/C (second compound 0.03 µM, first compound 0.3 µM) of the same compound?
Answer: Its viability, T/C is 102%.

Question: What about the viability, T/C (second compound 0.03 µM, first compound 0.949 µM) of the same compound?
Answer: The viability, T/C was 76.9%.

Question: And the viability, T/C (second compound 0.03 µM, first compound 3 µM)?
Answer: The viability, T/C was 56.9%.

Question: And the viability, T/C (second compound 0.0949 µM, first compound 0.00949 µM)?
Answer: Its viability, T/C is 97.1%.

Question: What about the viability, T/C (second compound 0.0949 µM, first compound 0.03 µM) of the same compound?
Answer: Its viability, T/C is 100%.

Question: What about the viability, T/C (second compound 0.0949 µM, first compound 0.0949 µM) of the same compound?
Answer: Its viability, T/C is 119%.

Question: And the viability, T/C (second compound 0.0949 µM, first compound 0.3 µM)?
Answer: The viability, T/C was 93.3%.

Question: What about the viability, T/C (second compound 0.0949 µM, first compound 0.949 µM) of the same compound?
Answer: The viability, T/C was 84.1%.

Question: What about the viability, T/C (second compound 0.0949 µM, first compound 3 µM) of the same compound?
Answer: Its viability, T/C is 51%.

Question: And the viability, T/C (second compound 0.3 µM, first compound 0.00949 µM)?
Answer: Its viability, T/C is 111%.

Question: What about the viability, T/C (second compound 0.3 µM, first compound 0.03 µM) of the same compound?
Answer: Its viability, T/C is 110%.

Question: And the viability, T/C (second compound 0.3 µM, first compound 0.0949 µM)?
Answer: Its viability, T/C is 88.3%.

Question: And the viability, T/C (second compound 0.3 µM, first compound 0.3 µM)?
Answer: The viability, T/C was 85.3%.

Question: What about the viability, T/C (second compound 0.3 µM, first compound 0.949 µM) of the same compound?
Answer: Its viability, T/C is 77.8%.

Question: And the viability, T/C (second compound 0.3 µM, first compound 3 µM)?
Answer: The viability, T/C was 52%.

Question: And the viability, T/C (second compound 0.949 µM, first compound 0.00949 µM)?
Answer: The viability, T/C was 113%.

Question: What about the viability, T/C (second compound 0.949 µM, first compound 0.03 µM) of the same compound?
Answer: The viability, T/C was 109%.

Question: And the viability, T/C (second compound 0.949 µM, first compound 0.0949 µM)?
Answer: The viability, T/C was 109%.

Question: And the viability, T/C (second compound 0.949 µM, first compound 0.3 µM)?
Answer: Its viability, T/C is 97.5%.

Question: And the viability, T/C (second compound 0.949 µM, first compound 0.949 µM)?
Answer: Its viability, T/C is 75.7%.

Question: What about the viability, T/C (second compound 0.949 µM, first compound 3 µM) of the same compound?
Answer: The viability, T/C was 52%.

Question: What about the viability, T/C (second compound 3 µM, first compound 0.00949 µM) of the same compound?
Answer: Its viability, T/C is 75.6%.

Question: And the viability, T/C (second compound 3 µM, first compound 0.03 µM)?
Answer: Its viability, T/C is 92.5%.

Question: And the viability, T/C (second compound 3 µM, first compound 0.0949 µM)?
Answer: Its viability, T/C is 85.7%.

Question: What about the viability, T/C (second compound 3 µM, first compound 0.3 µM) of the same compound?
Answer: Its viability, T/C is 71.9%.

Question: What about the viability, T/C (second compound 3 µM, first compound 0.949 µM) of the same compound?
Answer: The viability, T/C was 62.6%.

Question: What about the viability, T/C (second compound 3 µM, first compound 3 µM) of the same compound?
Answer: The viability, T/C was 48.5%.
